In patent publication US11261186B2, “Biaryl derivative as GPR120 agonist” (LG CHEM, LTD., priority 2014, dated 2022):

Molecular target: T1, hGPR120 (Homo sapiens, UniProt Q5NUL3)
T1 construct: expressed in transfected cells; host or cells: CHO-K1
T1 sequence (Q5NUL3 1-361): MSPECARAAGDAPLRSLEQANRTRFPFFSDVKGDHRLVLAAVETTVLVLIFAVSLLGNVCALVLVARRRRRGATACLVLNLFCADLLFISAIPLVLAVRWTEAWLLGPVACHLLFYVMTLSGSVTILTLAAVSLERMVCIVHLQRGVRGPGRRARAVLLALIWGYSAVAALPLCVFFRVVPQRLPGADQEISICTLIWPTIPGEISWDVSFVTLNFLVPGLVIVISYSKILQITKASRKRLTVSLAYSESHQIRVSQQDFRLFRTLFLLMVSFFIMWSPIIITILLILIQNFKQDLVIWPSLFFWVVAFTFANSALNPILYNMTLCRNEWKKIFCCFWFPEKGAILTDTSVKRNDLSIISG
Experiment: Measurement of Activity of GPR120 Agonist (Cell-Based Assay), Calcium 5 dye fluorescence
Conditions: CHO-K1 cells expressing Ga16 and hGPR120
Outline: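 Gα16/hGPR120 CHO-K1; 18 h plating, 37 °C, 5% CO2; Calcium 5 dye load 1 h; agonist serial dilution, 0.5% DMSO final; fluor Ex485/Em525; response as % of 1% DMSO vehicle.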

| SMILES | EC50 [nM] |
| --- | --- |
| O=C(O)CCCOc1c(F)cc(-c2cccc(OC3CCC3)n2)cc1Cl [Example 385, 4-[2-chloro-4-[6-(cyclobutoxy)-2-pyridyl]-6-fluoro-phenoxy]butanoic acid] | < 200 |
| O=C(O)CCCOc1c(Cl)cc(-c2cccc(OC3CCC3)n2)cc1Cl [Example 386, 4-[2,6-dichloro-4-[6-(cyclobutoxy)-2-pyridyl]phenoxy]butanoic acid] | < 200 |
| O=C(O)CCCOc1c(F)cc(-c2occc2COCC2CC2)cc1F [Example 387, 4-[4-[3-(cyclopropylmethoxymethyl)-2-furyl]-2,6-difluoro-phenoxy]butanoic acid] | < 200 |
| O=C(O)CCCOc1c(F)cc(-c2cccc(COCC3CC3)n2)cc1F [Example 388, 4-[4-[6-(cyclopropylmethoxymethyl)-2-pyridyl]-2,6-difluoro-phenoxy]butanoic acid] | 200 to 2000 |
| O=C(O)CCCOc1c(F)cc(-c2cc(F)cc(OC3CCC3)c2)cc1Cl [Example 389, 4-[2-chloro-4-[3-(cyclobutoxy)-5-fluoro-phenyl]-6-fluoro-phenoxy]butanoic acid] | < 200 |
| Cc1onc(COCC2CC2)c1-c1cc(F)c(OCCCC(=O)O)c(F)c1 [Example 390, 4-[4-[3-(cyclopropylmethoxymethyl)-5-methyl-isoxazol-4-yl]-2,6-difluoro-phenoxy]butanoic acid] | > 20000 |
| Cc1cc(OC2CCC2)nc(-c2cc(F)c(OCCCC(=O)O)c(Cl)c2)n1 [Example 391, 4-[2-chloro-4-[4-(cyclobutoxy)-6-methyl-pyrimidin-2-yl]-6-fluoro-phenoxy]butanoic acid] | < 200 |
| Cc1cc(-c2cc(F)c(OCCCC(=O)O)c(Cl)c2)nc(OC2CCC2)n1 [Example 392, 4-[2-chloro-4-[2-(cyclobutoxy)-6-methyl-pyrimidin-4-yl]-6-fluoro-phenoxy]butanoic acid] | < 200 |
| O=C(O)CCCOc1c(F)cc(-c2cc(OC3CCC3)cc(Cl)n2)cc1F [Example 393, 4-[4-[6-chloro-4-(cyclobutoxy)-2-pyridyl]-2,6-difluoro-phenoxy]butanoic acid] | < 200 |
| O=C(O)CCCOc1c(F)cc(-c2csc(OC3CCC3)n2)cc1F [Example 394, 4-[4-[2-(cyclobutoxy)thiazol-4-yl]-2,6-difluoro-phenoxy]butanoic acid] | < 200 |
| Cc1cc(OC2CCC2)nc(-c2cc(F)c(OCCCC(=O)O)c(F)c2)c1 [Example 395, 4-[4-[6-(cyclobutoxy)-4-methyl-2-pyridyl]-2,6-difluoro-phenoxy]butanoic acid] | < 200 |
| Cc1cc(OCC2CC2)nc(-c2cc(F)c(OCCCC(=O)O)c(Cl)c2)n1 [Example 396, 4-[2-chloro-4-[4-(cyclopropylmethoxy)-6-methyl-pyrimidin-2-yl]-6-fluoro-phenoxy]butanoic acid] | < 200 |
| O=C(O)CCCOc1c(F)cc(-c2csc(OCC3CC3)n2)cc1F [Example 397, 4-[4-[2-(cyclopropylmethoxy)thiazol-4-yl]-2,6-difluoro-phenoxy]butanoic acid] | < 200 |
| O=C(O)CCCOc1c(F)cc(-c2cncc(OC3CCC3)n2)cc1F [Example 398, 4-[4-[6-(cyclobutoxy)pyrazin-2-yl]-2,6-difluoro-phenoxy]butanoic acid] | < 200 |
| CC(CCCC(=O)O)c1c(F)cc(-c2cncc(OC3CCC3)n2)cc1F (centres unmarked) [Example 399, 5-[4-[6-(cyclobutoxy)pyrazin-2-yl]-2,6-difluoro-phenyl]hexanoic acid] | < 200 |
| O=C(O)CCCOc1c(F)cc(-c2cccc(OC3CCCC3)n2)cc1Cl [Example 400, 4-[2-chloro-4-(6-cyclopentyloxy-pyridin-2-yl)-6-fluoro-phenoxy]-butyric acid] | < 200 |
| O=C(O)CCCOc1c(F)cc(-c2cccc(OCC3CC3)n2)cc1Cl [Example 401, 4-[2-chloro-4-(6-cyclopropylmethoxy-pyridin-2-yl)-6-fluoro-phenoxy]-butyric acid] | < 200 |
| CC(C)Oc1cccc(-c2cc(F)c(OCCCC(=O)O)c(Cl)c2)n1 [Example 402, 4-[2-chloro-6-fluoro-4-(6-isopropoxy-pyridin-2-yl)-phenoxy]-butyric acid] | < 200 |
| O=C(O)CCCOc1c(F)cc(-c2cccc(SC3CCC3)n2)cc1Cl [Example 403, 4-[2-chloro-4-(6-cyclobutylsulfanyl-pyridin-2-yl)-6-fluoro-phenoxy]-butyric acid] | < 200 |
| CC(C)Sc1cccc(-c2cc(F)c(OCCCC(=O)O)c(Cl)c2)n1 [Example 404, 4-[2-chloro-6-fluoro-4-(6-isopropylsulfanyl-pyridin-2-yl)-phenoxy]-butyric acid] | < 200 |
| O=C(O)CCCOc1c(F)cc(-c2cccc(OC3CCC3)c2)cc1Cl [Example 405, 4-(5-chloro-3′-cyclobutoxy-3-fluoro-biphenyl-4-yloxy)-butyric acid] | < 200 |

| SMILES | EC50 [nM] |
| --- | --- |
| O=C(O)CCCOc1c(F)cc(-c2cccc(OCC3CC3)c2)cc1Cl [Example 406, 4-(5-chloro-3′-cyclopropylmethoxy-3-fluoro-biphenyl-4-yloxy)-butyric acid] | < 200 |
| COc1ccc(-c2cc(F)c(OCCCC(=O)O)c(Cl)c2)cc1OCC1CC1 [Example 407, 4-(5-chloro-3′-cyclopropylmethoxy-3-fluoro-4′-methoxy-biphenyl-4-yloxy)-butyric acid] | < 200 |
| O=C(O)CCCOc1c(F)cc(-c2ccc(F)c(OCC3CC3)c2)cc1Cl [Example 408, 4-(5-chloro-3′-cyclopropylmethoxy-3,4′-difluoro-biphenyl-4-yloxy)-butyric acid] | < 200 |
| O=C(O)CCCOc1c(F)cc(-c2cccc(SC3CCC3)c2)cc1F [Example 409, 4-(3′-cyclobutylsulfanyl-3,5-difluoro-biphenyl-4-yloxy)-butyric acid] | < 200 |
| CC(CCCC(=O)O)c1c(F)cc(-c2cccc(OC3CCC3)c2)cc1F (centres unmarked) [Example 410, 5-(3′-cyclobutoxy-3,5-difluoro-biphenyl-4-yl)-hexanoic acid] | < 200 |
| CC(CCCC(=O)O)c1c(F)cc(-c2cc(F)cc(OC3CCC3)c2)cc1F (centres unmarked) [Example 411, 5-(5′-cyclobutoxy-3,5,3′-trifluoro-biphenyl-4-yl)-hexanoic acid] | < 200 |
| COc1ccc(-c2cc(F)c(C(C)CCCC(=O)O)c(F)c2)cc1OCC1CC1 (centres unmarked) [Example 412, 5-(3′-cyclopropylmethoxy-3,5-difluoro-4′-methoxy-biphenyl-4-yl)-hexanoic acid] | < 200 |
| CC(CCCC(=O)O)c1c(F)cc(-c2cccc(OCC3CC3)c2)cc1F (centres unmarked) [Example 413, 5-(3′-cyclopropylmethoxy-3,5-difluoro-biphenyl-4-yl)-hexanoic acid] | < 200 |
| O=C(O)CCCC(F)(F)c1ccc(-c2cc(F)cc(OC3CCC3)c2)cc1 [Example 414, 5-(5′-cyclobutoxy-3′-fluoro-biphenyl-4-yl)-5,5-difluoro-pentanoic acid] | < 200 |
| CC(CCCC(=O)O)c1c(F)cc(-c2ccc(Cl)c(OC3CCC3)n2)cc1F (centres unmarked) [Example 415, 5-[4-(5-chloro-6-cyclobutoxy-pyridin-2-yl)-2,6-difluoro-phenyl]-hexanoic acid] | < 200 |
| O=C(O)CCCOc1c(F)cc(-c2cccc(S(=O)(=O)C3CCC3)c2)cc1F [Example 416, 4-(3′-cyclobutanesulfonyl-3,5-difluoro-biphenyl-4-yloxy)-butyric acid] | 200 to 2000 |
| CN(Cc1cc(O)no1)c1ccc(-c2cccc(OC3CCC3)n2)cc1 [Example 417, 5-({[4-(6-cyclobutoxy-pyridin-2-yl)-phenyl]-methyl-amino}-methyl)-isoxazol-3-ol] | < 200 |
| Cc1cc(-c2cc(F)c(C(C)CCCC(=O)O)c(F)c2)nc(OC2CCC2)n1 (centres unmarked) [Example 418, 5-[4-(2-cyclobutoxy-6-methyl-pyrimidin-4-yl)-2,6-difluoro-phenyl]-hexanoic acid] | < 200 |
| Cc1cc(OC2CCC2)nc(-c2cc(F)c(C(C)CCCC(=O)O)c(F)c2)n1 (centres unmarked) [Example 419, 5-[4-(4-cyclobutoxy-6-methyl-pyrimidin-2-yl)-2,6-difluoro-phenyl]-hexanoic acid] | < 200 |
| O=C(O)CCCOc1c(F)cc(-c2nccc(OC3CCC3)n2)cc1F [Example 420, 4-[4-(4-cyclobutoxy-pyrimidin-2-yl)-2,6-difluoro-phenoxy]-butyric acid] | < 200 |
| O=C(O)CCCOc1c(F)cc(-c2ccnc(OC3CCC3)n2)cc1F [Example 421, 4-[4-(2-cyclobutoxy-pyrimidin-4-yl)-2,6-difluoro-phenoxy]-butyric acid] | < 200 |
| O=C(O)CCCOc1c(F)cc(-c2nccc(OC3CCC3)n2)cc1Cl [Example 422, 4-[2-chloro-4-(4-cyclobutoxy-pyrimidin-2-yl)-6-fluoro-phenoxy]-butyric acid] | < 200 |
| O=C(O)CCCOc1c(F)cc(-c2ccnc(OC3CCC3)n2)cc1Cl [Example 423, 4-[2-chloro-4-(2-cyclobutoxy-pyrimidin-4-yl)-6-fluoro-phenoxy]-butyric acid] | < 200 |
| O=C(O)CCCOc1c(F)cc(-c2cc(OC3CCC3)cc(Cl)n2)cc1Cl [Example 424, 4-[2-chloro-4-(6-chloro-4-cyclobutoxy-pyridin-2-yl)-6-fluoro-phenoxy]-butyric acid] | < 200 |
| Cc1cc(OC2CCC2)nc(-c2cc(F)c(OCCCC(=O)O)c(F)c2)n1 [Example 425, 4-[4-(4-cyclobutoxy-6-methyl-pyrimidin-2-yl)-2,6-difluoro-phenoxy]-butyric acid] | < 200 |
